Experimental data: patent publication US20260062443A1 (ALEXION PHARMACEUTICALS, INC., priority 2022, published 2026)

Molecular target: T1, Human complement C1s enzyme (Homo sapiens, UniProt P09871)
T1 sequence (P09871 438-688 limits assumed): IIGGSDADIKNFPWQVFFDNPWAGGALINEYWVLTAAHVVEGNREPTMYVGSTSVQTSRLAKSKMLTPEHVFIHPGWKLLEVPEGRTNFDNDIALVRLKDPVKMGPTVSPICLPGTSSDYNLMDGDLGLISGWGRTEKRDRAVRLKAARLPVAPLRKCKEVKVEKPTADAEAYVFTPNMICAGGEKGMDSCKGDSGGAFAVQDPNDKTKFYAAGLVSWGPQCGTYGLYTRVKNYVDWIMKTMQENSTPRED
T1 sequence (P09871 16-437 partner limits assumed): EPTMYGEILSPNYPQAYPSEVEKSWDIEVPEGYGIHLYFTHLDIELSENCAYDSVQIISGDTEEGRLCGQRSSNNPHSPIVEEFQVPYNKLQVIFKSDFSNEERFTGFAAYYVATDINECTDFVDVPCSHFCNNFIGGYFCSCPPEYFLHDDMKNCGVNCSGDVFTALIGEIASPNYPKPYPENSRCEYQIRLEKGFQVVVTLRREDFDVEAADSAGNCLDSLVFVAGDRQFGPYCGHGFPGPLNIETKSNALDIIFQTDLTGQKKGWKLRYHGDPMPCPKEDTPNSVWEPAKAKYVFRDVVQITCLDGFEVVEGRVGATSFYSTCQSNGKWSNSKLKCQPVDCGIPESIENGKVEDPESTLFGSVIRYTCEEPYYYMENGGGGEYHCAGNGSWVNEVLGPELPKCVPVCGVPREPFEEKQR
Assay: Human C1s enzyme assay
Format: biochemical
Settings: human complement C1s enzyme 1.16 nM, substrate Z-L-Lys-SBzl 100 μM, 5 min preincubation; read-out: IC50 (Stars), C1s Inhibiting Activity
Protocol: Other standard complement assays are also available.
Human complement C1s enzyme (purified from human serum, Complement Technology, Inc.) at 1.16 nM final concentration was incubated with test compound at various concentrations for 5 min at room temperature in 50 mM Tris, 1 M NaCl, pH 7.5. A synthetic substrate Z-L-Lys-SBzl and DTNB (Ellman's reagent) were added to final concentrations of 100 μM each. Absorbance at 405 nm (A405) was recorded at 30 second intervals for 30 min using a microplate spectrophotometer. IC50 values were calculated by nonlinear regression of complement C1 s reaction rates as a function of test compound concentration.
ND indicates a compound for which the IC50 value is not determined.

C[C@H](NC(=O)[C@@H]1CC2(CN1C(=O)CNC(=O)c1ccc3c(c1)-c1ccccc1C3(F)F)OCCO2)c1cc2cnccc2[nH]1 [Compound 23, (S)-N-((S)-1-(1H-pyrrolo[3,2-c]pyridin-2-yl)ethyl)-7-((9,9-difluoro-9H-fluorene-3-carbonyl)glycyl)-1,4-dioxa-7-azaspiro[4.4]nonane-8-carboxamide]
IC50: > 1000 nM

O=C(NCC(=O)N1CC2(C[C@H]1C(=O)NCc1cc3cnccc3[nH]1)OCCO2)c1ccc2c(c1)Sc1ccccc1O2 [Compound 24, (S)-N-((1H-pyrrolo[3,2-c]pyridin-2-yl)methyl)-7-((phenoxathiine-2-carbonyl)glycyl)-1,4-dioxa-7-azaspiro[4.4]nonane-8-carboxamide]
IC50: < 100 nM

COC[C@@]1(F)C[C@@H](C(=O)NCc2cc3cnccc3[nH]2)N(C(=O)CNC(=O)c2ccc3c(c2)Oc2ccccc2S3)C1 [Compound 25, (2S,4R)-N-((1H-pyrrolo[3,2-c]pyridin-2-yl)methyl)-4-fluoro-4-(methoxymethyl)-1-((phenoxathiine-3-carbonyl)glycyl)pyrrolidine-2-carboxamide]
IC50: < 100 nM

O=C(NCC(=O)N1C[C@@](F)(CF)C[C@H]1C(=O)NCc1cc2cnccc2[nH]1)c1ccc2c(c1)Oc1ccccc1S2 [Compound 26, (2S,4R)-N-((1H-pyrrolo[3,2-c]pyridin-2-yl)methyl)-4-fluoro-4-(fluoromethyl)-1-((phenoxathiine-3-carbonyl)glycyl)pyrrolidine-2-carboxamide]
IC50: < 100 nM

CS(=O)(=O)[C@@H]1C[C@@H](C(=O)NCc2cc3cnccc3[nH]2)N(C(=O)CNC(=O)c2ccc3c(c2)Oc2ccccc2S3)C1 [Compound 27, (2S,4R)-N-((1H-pyrrolo[3,2-c]pyridin-2-yl)methyl)-4-(methylsulfonyl)-1-((phenoxathiine-3-carbonyl)glycyl)pyrrolidine-2-carboxamide]
IC50: < 100 nM

C[C@@]12C[C@@H]1N(C(=O)CNC(=O)c1ccc(Oc3ccccc3)cc1)[C@H](C(=O)NCc1cc3cnccc3[nH]1)C2 [Compound 28, (1S,3S,5S)-N-((1H-pyrrolo[3,2-c]pyridin-2-yl)methyl)-5-methyl-2-((4-phenoxybenzoyl)glycyl)-2-azabicyclo[3.1.0]hexane-3-carboxamide]
IC50: < 100 nM

O=C(NCC(=O)N1CC2(C[C@H]1C(=O)NCc1cc3ccccc3[nH]1)OCCO2)c1ccc2c(c1)Oc1ccccc1S2 [Compound 29, (S)-N-((1H-indol-2-yl)methyl)-7-((phenoxathiine-3-carbonyl)glycyl)-1,4-dioxa-7-azaspiro[4.4]nonane-8-carboxamide]
IC50: > 1000 nM

COC[C@@]1(F)C[C@@H](C(=O)NCc2cc3cnccc3[nH]2)N(C(=O)CNC(=O)c2ccc(Oc3ccccc3)cc2)C1 [Compound 30, (2S,4R)-N-((1H-pyrrolo[3,2-c]pyridin-2-yl)methyl)-4-fluoro-4-(methoxymethyl)-1-((4-phenoxybenzoyl)glycyl) pyrrolidine-2-carboxamide]
IC50: < 100 nM

O=C(NCC(=O)N1CC2(C[C@H]1C(=O)NCc1nc3cnccc3o1)OCCO2)c1ccc2c(c1)Oc1ccccc1S2 [Compound 31, (S)-N-(oxazolo[4,5-c]pyridin-2-ylmethyl)-7-((phenoxathiine-3-carbonyl)glycyl)-1,4-dioxa-7-azaspiro[4.4]nonane-8-carboxamide]
IC50: > 1000 nM

O=C(NCC(=O)N1CC2(C[C@H]1C(=O)NCc1cc3cnccc3[nH]1)OCCO2)c1ccc(Oc2ccccc2)cc1 [Compound 32, (S)-N-((1H-pyrrolo[3,2-]pyridin-2-yl)methyl)-7-((4-phenoxybenzoyl)glycyl)-1,4-dioxa-7-azaspiro[4.4]nonane-8-carboxamide]
IC50: < 100 nM

O=C(NCC(=O)N1CC2(C[C@H]1C(=O)NCc1cc3cnccc3[nH]1)OCCO2)c1ccc(C(=O)c2ccccc2)cc1 [Compound 33, (S)-N-((1H-pyrrolo[3,2-c]pyridin-2-yl)methyl)-7-((4-benzoylbenzoyl)glycyl)-1,4-dioxa-7-azaspiro[4.4]nonane-8-carboxamide]
IC50: < 100 nM

O=C(NCC(=O)N1CC2(C[C@H]1C(=O)NCc1cc3ncccc3[nH]1)OCCO2)c1ccc2c(c1)-c1ccccc1C2(F)F [Compound 34, (S)-N-((1H-pyrrolo[3,2-b]pyridin-2-yl)methyl)-7-((9,9-difluoro-9H-fluorene-3-carbonyl)glycyl)-1,4-dioxa-7-azaspiro[4.4]nonane-8-carboxamide]
IC50: > 1000 nM

O=C(NCC(=O)N1CC2(C[C@H]1C(=O)NCc1cc3cnccc3[nH]1)OCCO2)c1ccc2oc3ccccc3c2c1 [Compound 35, (S)-N-((1H-pyrrolo[3,2-c]pyridin-2-yl)methyl)-7-((dibenzo[b,d]furan-2-carbonyl)glycyl)-1,4-dioxa-7-azaspiro[4.4]nonane-8-carboxamide]
IC50: < 100 nM

O=C(NCC(=O)N1C[C@H](OC(F)F)C[C@H]1C(=O)NCc1cc2cnccc2[nH]1)c1ccc2c(c1)Oc1ccccc1S2 [Compound 36, (2S,4R)-N-((1H-pyrrolo[3,2-c]pyridin-2-yl)methyl)-4-(difluoromethoxy)-1-((phenoxathiine-3-carbonyl)glycyl)pyrrolidine-2-carboxamide]
IC50: < 100 nM

O=C(NCC(=O)N1CC2(C[C@H]1C(=O)NCc1cc3cnncc3[nH]1)OCCO2)c1ccc2c(c1)Oc1ccccc1S2 [Compound 37, (S)-N-((1H-pyrrolo[2,3-d]pyridazin-2-yl)methyl)-7-((phenoxathiine-3-carbonyl)glycyl)-1,4-dioxa-7-azaspiro[4.4]nonane-8-carboxamide]
IC50: < 100 nM

C[C@@H](NC(=O)[C@@H]1CC2(CN1C(=O)CNC(=O)c1ccc3c(c1)-c1ccccc1C3(F)F)OCCO2)c1cc2cnccc2[nH]1 [Compound 38, (S)-N-((R)-1-(1H-pyrrolo[3,2-c]pyridin-2-yl)ethyl)-7-((9,9-difluoro-9H-fluorene-3-carbonyl)glycyl)-1,4-dioxa-7-azaspiro[4.4]nonane-8-carboxamide]
IC50: < 100 nM

C[C@@H](NC(=O)[C@@H]1C[C@@H](OC(F)F)CN1C(=O)CNC(=O)c1ccc(Oc2ccccc2)cc1)c1cc2cnccc2[nH]1 [Compound 39, (2S,4R)-N-((R)-1-(1H-pyrrolo[3,2-c]pyridin-2-yl)ethyl)-4-(difluoromethoxy)-1-((4-phenoxybenzoyl)glycyl)pyrrolidine-2-carboxamide]
IC50: < 100 nM

COC[C@@]1(F)C[C@@H](C(=O)N[C@H](C)c2cc3cnccc3[nH]2)N(C(=O)CNC(=O)c2ccc(Oc3ccccc3)cc2)C1 [Compound 40, (2S,4R)-N-((R)-1-(1H-pyrrolo[3,2-c]pyridin-2-yl)ethyl)-4-fluoro-4-(methoxymethyl)-1-((4-phenoxybenzoyl)glycyl) pyrrolidine-2-carboxamide]
IC50: 100 to 1000 nM

O=C(NCC(=O)N1CC2(C[C@H]1C(=O)NCc1nc3cnccc3s1)OCCO2)c1ccc2c(c1)Oc1ccccc1S2 [Compound 41, (S)-7-((phenoxathiine-3-carbonyl)glycyl)-N-(thiazolo[4,5-c]pyridin-2-ylmethyl)-1,4-dioxa-7-azaspiro[4.4]nonane-8-carboxamide]
IC50: > 1000 nM

O=C(NCC(=O)N1CC2(C[C@H]1C(=O)NCc1cc3c(Cl)nccc3[nH]1)OCCO2)c1ccc2c(c1)Oc1ccccc1S2 [Compound 42, (S)-N-((4-chloro-1H-pyrrolo[3,2-c]pyridin-2-yl)methyl)-7-((phenoxathiine-3-carbonyl)glycyl)-1,4-dioxa-7-azaspiro[4.4]nonane-8-carboxamide]
IC50: > 1000 nM

O=C(NCC(=O)N1CC2(C[C@H]1C(=O)NCc1cc3cnc(Cl)cc3[nH]1)OCCO2)c1ccc2c(c1)Oc1ccccc1S2 [Compound 43, (S)-N-((6-chloro-1H-pyrrolo[3,2-c]pyridin-2-yl)methyl)-7-((phenoxathiine-3-carbonyl)glycyl)-1,4-dioxa-7-azaspiro[4.4]nonane-8-carboxamide]
IC50: > 1000 nM

C[C@@]12C[C@@H]1N(C(=O)CNC(=O)c1ccc3c(c1)Oc1ccccc1S3)[C@H](C(=O)NCc1cc3cnccc3[nH]1)C2 [Compound 44, (1S,3S,5S)-N-((1H-pyrrolo[3,2-c]pyridin-2-yl)methyl)-5-methyl-2-((phenoxathiine-3-carbonyl)glycyl)-2-azabicyclo[3.1.0]hexane-3-carboxamide]
IC50: < 100 nM

O=C(NCC(=O)N1CC2(C[C@H]1C(=O)NCc1cc3cncc(F)c3[nH]1)OCCO2)c1ccc2c(c1)Oc1ccccc1S2 [Compound 45, (S)-N-((7-fluoro-1H-pyrrolo[3,2-c]pyridin-2-yl)methyl)-7-((phenoxathiine-3-carbonyl)glycyl)-1,4-dioxa-7-azaspiro[4.4]nonane-8-carboxamide]
IC50: > 1000 nM
